Here are results for five compounds from patent US9187518B2, “Antiangiogenic brassinosteroid compounds” (CONSEJO NACIONAL DE INVESTIGACIONES CIENTIFICAS Y TECNICAS …, priority 2011, dated 2015).

One experiment concerns HUVEC cells. Description: Capillary tube formation on a Matrigel. In kind it is cell-based, human. To be noted: for formation of capillary tube like structures: 20 μM and 40 μM, comparative assay; for antiangiogenic activity in the tube-like formation assay in HUVEC cells: overall conclusion. The procedure: The formation of capillary tube like structures by HUVEC cells was analyzed on 24-well cell culture plates coated with an extracellular membrane matrix (Matrigel; BD Biosciences).
Matrigel was thawed at 4° C. Using precooled plates and tips, 100 μl/well of Matrigel was distributed and allowed to gelify at 37° C. for at least 30 min. Cells were seeded on the polymerized Matrigel (5 to 8×10^4 cells/well). The plate was incubated at 37° C., and tube formation was observed under a optic inverted microscope. Digital pictures were taken at different times with a camera. Tubular structures were quantified by manual counting of low power fields (25×) and inhibition percentage was expressed using untreated wells as 100%.
The formation of capillary tube-like structures by HUVEC cells was analyzed on 24-well cell culture plates coated with an extracellular membrane matrix (Matrigel; BD Biosciences). Matrigel was thawed at 4° C. Using precooled plates and tips, 100 μl/well of Matrigel was distributed and allowed to gelify at 37° C. for at least 30 min. Cells were seeded on the polymerized Matrigel (5 to 8×10^4 cells/well) in absence and presence of concentrations of 20 μM and 40 μM of each compound. The plate was incubated at 37° C., and tube formation was observed under an optic inverted microscope. Compound 1 was used as positive control.

Experiment [1] deals with IL-6. To be noted: human epithelial cells derived from ocular tissues; earlier work; cited from earlier work.
For a further experiment, the system named is HSV-1. To be noted: murine model of HSV-1 corneal infection; previously reported; cited from earlier work.
For experiment [2], the system named is TNF-α. Conditions: human epithelial cells derived from ocular tissues; earlier work; cited from earlier work.
The subject of experiment [3] is TNF-α. Conditions: LPS-stimulated macrophages in vitro; earlier work; cited from earlier work.
Experiment [4] concerns IL-6. Description: IL-6 secretion in LPS-stimulated J774A.1 macrophages (ELISA). Format: cell-based, murine. Conditions: J774A.1 stimulated with 100 ng/ml LPS 8 h, 40 μM. The procedure: J774A.1 cells grown in 24-well plates were incubated at 37° C. with 100 ng/ml of LPS, in duplicate. After 8 h, supernatants were harvested and murine IL-6 was quantified by commercial ELISA sets (BD OptEIA™, Becton Dickinson, USA) according to manufacturer instructions.

Experiment [5] concerns TNF-α. Description: TNF-α secretion in LPS-activated macrophages. Format: cell-based. Conditions: Macrophage, read-out: inhibitory concentration 50% (IC50), TNF-α secretion.
The next experiment relates to NF-κB p65 subunit. Description: NF-κB p65 nuclear translocation in LPS-stimulated J774A.1 cells (IFI). Format: cell-based, murine. Conditions: J774A.1 induced with LPS 8 h, 40 μM (LPS only 79.4±1.2). The procedure:
J774A.1 cells were grown on coverslips in 24-well plates and stimulated with 100 ng/ml LPS (Sigma) in RPMI without SFB, for 8 h at 37° C.
After incubation, cells were fixed in methanol at −20° C. for 10 min, and processed for indirect immunofluorescence (IFI) with antibodies directed against the glycoprotein D (gD) of HSV-1 and/or the p65 subunit of NF-κB. After three washes with PBS, the coverslips were inverted on a drop of a 1/100 dilution of the first antibody, mouse monoclonal anti-gD and/or rabbit polyclonal anti p65 (Santa Cruz Biotechnology) and incubated for 30 min at 37° C., and then subjected to three additional washes with PBS. […]
The images obtained with a 40× magnification were imported into NIH Image J 1.34s program (designed by Wayne Rasband, NIMH, Bethesda). […] We analyzed the total and nuclear fluorescence of the individual cells and a mean fluorescence density was obtained for each. To compare the distribution of fluorescence within the cell, the results were analyzed in a spreadsheet (Excel®). The total fluorescence intensity or nuclear density was calculated as the total or nuclear average per total or nuclear area, respectively. Then, we calculated the percentage of nuclear intensity or the percentage of nuclear intensity with respect to the total intensity for each cell. […]

With `CC[C@@H](C(C)C)[C@H](O)[C@@H](O)[C@@H](C)[C@H]1CC[C@H]2[C@@H]3CCC4=CC(=O)C=C[C@]4(C)[C@H]3CC[C@]12C` [Compound 2, (22S,23S)-22,23-dihydroxystigmasta-1,4-dien-3-one], in the experiment with HUVEC cells, the “formation of capillary tube like structures” value is listed as “showed inhibitory activity”.
Take `CC[C@@H](C(C)C)[C@H](O)[C@@H](O)[C@@H](C)[C@H]1CC[C@H]2[C@@H]3CC(=O)[C@@]4(O)C[C@@H](Br)CC[C@]4(C)[C@H]3CC[C@]12C` [Compound 6b, (22S,23S)-3β-bromo-5α,22,23-trihydroxystigmastan-6-one]: the “secretion of IL-6” value with IL-6 [1] was “modulates”. In the experiment on HSV-1, the “anti-HSV-1 activity in vivo” value was “does not exert an anti-HSV-1 activity in vivo” and the “incidence of HSK” value was “significantly decreases”. Further, the “secretion of TNF-α” value with TNF-α [2] is “modulates”. For the same compound, the “production of TNF-α” value with TNF-α [3] is “hinders”.
For `CC[C@@H](C(C)C)[C@H](O)[C@@H](O)[C@@H](C)[C@H]1CCC2C3C[C@H](F)C4=CC(=O)CC[C@]4(C)C3CC[C@@]21C` (stereo partly shown) [Compound III], in the experiment with HUVEC cells, the “formation of capillary tube like structures” value was “develop the formation of capillary tube-like structures in same manner than control cells without treatment” and the “antiangiogenic activity in the tube-like formation assay in HUVEC cells” value was “not present”.
Consider `CC[C@@H](C(C)C)[C@H](O)[C@@H](O)[C@@H](C)[C@H]1CCC2C3C[C@H](F)C4=CC(=O)C=C[C@]4(C)C3CC[C@@]21C` (stereo partly shown) [Compound IV], for which, in the experiment on HUVEC cells, the “formation of capillary tube like structures” value is reported as “develop the formation of capillary tube-like structures in same manner than control cells without treatment” and the “antiangiogenic activity in the tube-like formation assay in HUVEC cells” value was “not present”.
In the experiment with IL-6 [4], `C[C@@H]1C[C@H]2[C@@H]3CCC4=CC(=O)C=C[C@]4(C)[C@@]3(F)[C@@H](O)C[C@]2(C)[C@@]1(O)C(=O)CO` [DEX, Dexamethasone, reference compound] returned an IL-6 level of 637.1 ± 3.8 pg/mL. Moreover, the IC50 in the experiment on TNF-α [5] worked out at 48 µM. For the same compound, the “percentage of cells positive for NF-κB translocation to the nucleus” value with NF-κB p65 subunit is on record as 100%.
